Reference: patent US6063797A, “γ-RAR antagonist ligand or α-RAR agonist ligand as an apoptosis inhibitor” (priority 1995, dated 2000)
Read-outs that look alike come from different tables or passages of the source. One block for each compound: values may come before it.

Legend:
RAR-α = molecular target: T1, RAR-α (Homo sapiens, UniProt P10276); assay: Dissociation constant for RAR-α receptors; assay type: binding
T1 sequence (P10276 1-462): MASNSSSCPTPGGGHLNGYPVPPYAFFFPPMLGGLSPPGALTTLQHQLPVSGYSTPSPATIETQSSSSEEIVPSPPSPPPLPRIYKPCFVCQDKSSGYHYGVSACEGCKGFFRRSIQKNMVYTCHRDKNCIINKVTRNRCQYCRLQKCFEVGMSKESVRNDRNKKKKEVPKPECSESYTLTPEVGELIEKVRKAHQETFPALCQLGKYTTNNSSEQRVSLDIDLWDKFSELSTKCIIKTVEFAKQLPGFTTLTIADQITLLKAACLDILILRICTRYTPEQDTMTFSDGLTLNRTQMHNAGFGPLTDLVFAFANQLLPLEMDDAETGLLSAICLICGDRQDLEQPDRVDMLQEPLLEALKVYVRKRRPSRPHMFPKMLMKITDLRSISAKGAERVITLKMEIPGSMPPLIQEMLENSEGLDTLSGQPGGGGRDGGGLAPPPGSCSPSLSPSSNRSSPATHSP

thymus = assay type: in vivo, mouse (NMRI); conditions: for Weight of the thymus: 48 h, control 98.2 ± 19.6
Protocol: 4-week-old male NMRI mice (sold by LATI, Godollo, Hungary) were used. […] For the control, male mice were treated by a single intraperitoneal injection of a mixture of 40 μl of DMSO and 0.5 ml of 20% ethanol. The CD2665 was also tested alone under the same conditions as before and in a quantity of 0.5 mg. The weight of the thymus was determined after 48 hours of treatment, and the results are assembled in Table 4 below.

thymocytes [1] = assay: Quantitative DNA fragmentation (apoptosis) in thymocytes, retinoid-induced (Example 1); assay type: cell-based, mouse (NMRI); conditions: for % of DNA fragments: 6 h
Protocol: (§1) Thymus glands from untreated 4-week old NMRI male mice (sold by LATI, Godollo, Hungary) are used as the starting material for preparing thymocyte suspensions. The medium employed is Sigma RPMI 1640 medium which is supplemented with Gibco foetal calf serum, 2 mM glutamine, 100 IU of penicillin and 100 μg of streptomycin/ml. The thymocytes are then washed and diluted, in order to obtain a final concentration of 10^7 cells/ml, before incubating them at 37° C. in a humidified incubator under an atmosphere of 5% CO2 and 95% air. The death of the cells is measured by the uptake of trypan blue.
(§2) The thymocytes are incubated in 24 wells together with various compounds to be tested. After 6 hours of incubation, 0.8 ml volumes of cell suspensions were lysed by the addition of 0.7 ml of lysis buffer containing 0.5% (v/v) Triton X-100, 10 mM Tris, 20 mM EDTA, pH 8.0, before being centrifuged at 13,000 g for 15 minutes.
(§3) Quantitative analysis of the DNA: the DNA contained in the supernatant (the fragments) and the pellet (intact chromatin) was precipitated with an equivalent quantity of 10% trichloroacetic acid, resuspended in 5% trichloroacetic acid and then quantified using the diphenylamine reagent (Burton, K. (1956) Biochem. J., 62, 315-322).
Qualitative analysis of the DNA: in parallel, the supernatant was precipitated overnight in ethanol containing […]. The pellets are redissolved in a buffer containing 10 mM Tris, 1 mM EDTA, pH 8.0, after which the solutions are treated with RNase and sequentially extracted with an equal volume of phenol and chloroform/isoamyl alcohol (24/1); the DNA is then precipitated in ethanol before electrophoresis for 3 hours at 60 V in a 1.8% agarose gel. The DNA fragments were then visualized by UV after the gel had been stained with ethidium bromide. The gels obtained display the picture of a ladder of DNA fragments which are multiples of from 180 to 200 base pairs and which are typical for an apoptosis induction. Throughout the experiments, the degree of fragmentation correlates with the number of cells which are dead and which are positive to the trypan blue test.
(§4) The percentage of DNA fragment in this table corresponds to the difference between the percentage of DNA fragment obtained in the treated thymocytes and the percentage of DNA fragment obtained in the untreated thymocytes (basal rate of apoptosis for these thymocytes).

RAR-γ = molecular target: T2, RAR-γ (Homo sapiens, UniProt P13631); assay: Dissociation constant for RAR-γ receptors; assay type: binding
T2 sequence (P13631 1-454): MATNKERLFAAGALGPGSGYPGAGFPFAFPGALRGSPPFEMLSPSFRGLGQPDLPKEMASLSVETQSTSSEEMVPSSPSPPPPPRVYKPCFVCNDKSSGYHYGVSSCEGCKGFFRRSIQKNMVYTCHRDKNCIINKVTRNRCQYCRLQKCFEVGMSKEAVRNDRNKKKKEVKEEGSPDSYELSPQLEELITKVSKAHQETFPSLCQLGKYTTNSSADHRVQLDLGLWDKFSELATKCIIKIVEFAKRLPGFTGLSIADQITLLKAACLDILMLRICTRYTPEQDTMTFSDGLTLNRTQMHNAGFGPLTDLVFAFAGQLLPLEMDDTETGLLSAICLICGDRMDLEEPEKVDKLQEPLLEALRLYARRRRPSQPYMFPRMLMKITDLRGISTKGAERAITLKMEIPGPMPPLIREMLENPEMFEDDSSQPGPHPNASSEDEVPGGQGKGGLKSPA

thymocytes [2] = assay: DNA fragmentation (apoptosis) in thymocytes induced by CD437 (Example 2); assay type: cell-based, mouse (NMRI); conditions: for % of DNA fragments: difference treated minus untreated
Protocol: as §1, §2, §3
The procedure is the same as in the preceding example, except that the nature of the ligands to be tested, and their concentration, are altered.
as §4

thymocytes [3] = assay: DNA fragmentation (apoptosis) in thymocytes induced by activating a T-cell receptor with phorbol dibutyrate + Ca++ ionophore (Example 3); assay type: cell-based, mouse (NMRI); conditions: for % of DNA fragments: difference treated minus untreated
[4] = 0.5 mg single intraperitoneal injection, alone

Kd (RAR-α): > 2250 nM
Kd (RAR-γ): 110 nM
dissociation constant for RAR-γ lower than dissociation constant for RAR-α (fold) (RAR-γ; RAR-γ versus RAR-α): at least 20 times
SMILES: COCCOCOc1cc2ccc(-c3ccc(C(=O)O)cc3)cc2cc1C12CC3CC(CC(C3)C1)C2 [CD2665, 4-[7-(1-adamantyl)-6-methoxyethoxymethoxy-2-naphthyl]benzoic acid]
Weight of the thymus (thymus; [4]): 107.6 ± 21.7 mg
Weight of the thymus (thymus; CD2665 5 mg + CD437 0.5 mg, single intraperitoneal injection): 63.3 ± 9.1 mg
involution of the thymus (thymus; alone, conclusion from Table 4): no significant change is observed
involution of the thymus (thymus; combination of CD2665 and CD437, compared with CD437 alone): involution of the thymus which is much less marked than that observed with CD437 alone
% of DNA fragments (thymocytes [1]; CD2665 200 nM + 9-cisRA 1000 nM, difference treated minus untreated): 1.5%
% of DNA fragments (thymocytes [1]; CD2665 200 nM + ATRA 5000 nM, difference treated minus untreated): 0%
% of DNA fragments (thymocytes [1]; CD2665 200 nM + CD437 300 nM, difference treated minus untreated): 1.0%
% of DNA fragments (thymocytes [1]; CD2665 200 nM alone, difference treated minus untreated thymocytes): 0.5%
inhibition of apoptosis induced by ATRA, 9-cisRA and CD437 (thymocytes [1]; conclusion from Table 1): inhibited

SMILES: O=C(O)c1ccc2cc(-c3ccc(O)c(C45CC6CC(CC(C6)C4)C5)c3)ccc2c1 [CD437, reference compound]
% of DNA fragments (thymocytes [2]; CD437 alone 0.3 × 10^-6 M): 17%
Weight of the thymus (thymus; [4]): 31.3 ± 13.6 mg
involution of the thymus (thymus; alone, conclusion from Table 4): involution of the thymus is observed
% of DNA fragments (thymocytes [1]; CD437 300 nM, difference treated minus untreated thymocytes): 24%

SMILES: CC1(C)CCC(C)(C)c2cc(C(=O)Nc3ccc(C(=O)O)cc3)ccc21 [CD336, 4-((5,6,7,8-tetrahydro-5,5,8,8-tetramethyl-2-naphthalenyl)carboxamido)benzoic acid]
% of DNA fragments (thymocytes [2]; CD336 alone 10^-6 M): 0%
% of DNA fragments (thymocytes [2]; CD336 alone 10^-7 M): 0%
% of DNA fragments (thymocytes [2]; CD336 alone 10^-8 M): 0%
% of DNA fragments (thymocytes [2]; CD437 + CD336 10^-6 M): 0%
% of DNA fragments (thymocytes [2]; CD437 + CD336 10^-7 M): 5%
% of DNA fragments (thymocytes [2]; CD437 + CD336 10^-8 M): 17%
inhibition of apoptosis induced by CD437 (thymocytes [2]; conclusion from Table 2): inhibited in a dose-dependent manner
% of DNA fragments (thymocytes [3]; (P + C) + CD336 30 nM): 9.6%
% of DNA fragments (thymocytes [3]; (P + C) + CD336 300 nM): 8.4%
% of DNA fragments (thymocytes [3]; (P + C) + CD336 3000 nM): 1.1%
% of DNA fragments (thymocytes [3]; CD336 alone 30 nM): 0%
% of DNA fragments (thymocytes [3]; CD336 alone 300 nM): 0%
% of DNA fragments (thymocytes [3]; CD336 alone 3000 nM): 0%
inhibition of apoptosis induced by P+C (thymocytes [3]; conclusion from Table 3): inhibited in a dose-dependent manner

dissociation constant for RAR-α lower than dissociation constant for RAR-γ (fold) (RAR-α; RAR-α versus RAR-γ): at least 20 times
SMILES: CC1(C)CCC(C)(C)c2cc(C(=O)Nc3ccc(C(=O)O)c(O)c3)ccc21 [2-hydroxy-4-(5,5,8,8-tetramethyl-5,6,7,8-tetrahydronaphthalene-2-carboxamido)benzoic acid]

SMILES: CC1=C(/C=C/C(C)=C/C=C/C(C)=C/C(=O)O)C(C)(C)CCC1 [ATRA, all-trans retinoic acid, reference compound]
% of DNA fragments (thymocytes [1]; ATRA 5000 nM, difference treated minus untreated thymocytes): 17%

SMILES: CC1=C(/C=C/C(C)=C\C=C\C(C)=C\C(=O)O)C(C)(C)CCC1 [9-cisRA, 9-cis-retinoic acid, reference compound]
% of DNA fragments (thymocytes [1]; 9-cisRA 1000 nM, difference treated minus untreated thymocytes): 19%
